Data published in patent publication US11000543B2, “Substances containing AuCs and preparation method and use thereof” (Shenzhen Profound-View Pharma Tech Co., Ltd, priority 2017, dated 2021).

Tests used:
Aβ(1-40) [1] = target: T1, Aβ(1-40) (Homo sapiens, UniProt P05067); experiment: In vitro Aβ(1-40) aggregation kinetics, ThT fluorescent labeling method; assay type: biochemical; conditions: L-NIBC 1.0 and 10.0 ppm; 20 μM Aβ(1-40), 37° C.
T1 construct: Freeze-dried powder of amyloid polypeptide Aβ(1-40) (Invitrogen Corp.); purchased Invitrogen Corp
T1 sequence (P05067 672-711 limits assumed): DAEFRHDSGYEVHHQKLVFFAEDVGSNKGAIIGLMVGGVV
Source text: Thioflavin T (abbreviation: ThT) is a dye specifically for dyeing amyloid fibers. […] When it encounters amyloid polypeptides or proteins with a fiber structure, it will immediately couple with the amyloid polypeptides or proteins and its fluorescence intensity will increase exponentially. Just because of this property, ThT is widely used as a marker to monitor amyloidosis of peptides or proteins. The fibrosis process of Aβ(1-40) is also a nucleation-controlled polymerization process. Therefore, the growth curve of Aβ(1-40) fiber measured by ThT fluorescent labeling method is mainly divided into three stages: Initial stage, growth stage and platform stage. […] All the Aβ(1-40) PBS solutions for the experiments were prepared freshly. […] The samples were incubated continuously in a 96-well plate at 37° C. by ThT fluorescent labeling method, and monitored the fluorescence intensity by microplate reader once every 10 minutes.

Aβ(1-40) [2] = target: T1, Aβ(1-40); experiment: AFM topography of Aβ(1-40) after 48 h coincubation; assay type: biochemical; conditions: coincubated for 48 h
Experimental: Panel A is the AFM topography after Aβ(1-40) was incubated alone for 48 h. Panel B is an AFM topography after Aβ(1-40) was coincubated with L-NIBC for 48 h. Panel C and panel D are AFM topographies after Aβ(1-40) was coincubated with gold nanoparticles with an average particle size of 6.0 nm and 3.6 nm respectively (modified with L-NIBC) for 48 h. And […] is an AFM topography after Aβ(1-40) was coincubated with AuCs in an average particle size of 1.8 nm (modified with L-NIBC) for 48 h.

[3] = tested on: SH-SY5Y neuroblastoma cell line; experiment: Aβ induced AD cell model, cell viability by CCK-8; assay type: cell-based; conditions: 20 μM Aβ(1-40), 24 h; L-NIBC 20 ppm; particles 0.01-20 ppm
Experimental: The cell viability was used as an index in the experiment of this embodiment. […] The cells used in the experiment were SH-SY5Y neuroblastoma cell line. […] Specific method:
1) SH-sy5y cells (cells had passed to the sixth generation) in logarithmic growth phase were diluted with complete medium (MEM+10% FBS+1% penicillin−streptomycin) to get a cell suspension in a density of 5×10^4/mL. The suspension was inoculated 200 μL per well into a 96-well plate, and cultivated in an incubator with 5% CO2 at 37° C. A sample was added when the cells attached to the wells.
2) 100 μL ligand-modified AuCs samples or ligand-modified gold nanoparticles samples, at different particle sizes and at concentrations of 0.04 ppm, 0.4 ppm, 4 ppm, 20 ppm, 40 ppm and 80 ppm respectively, which were dissolved by maintenance medium (MEM+2% FBS+1% penicillin-streptomycin) were added into the incubated suspension obtained from Step 1). After incubating in the incubator for 2 h, 100 μL 80 μM Aβ(1-40) was added, and then the mixture was incubated in the incubator for 24 h. […] The culture medium was removed, maintenance medium (MEM) containing 10% CCK-8 at 100 μL/well was added and was incubated for 4 h, the absorbance of each well at 450 nm was measured to reflect the prevention and treatment effects of ligand-modified AuCs on Aβ(1-40) lesion.

α-syn = target: T2, α-syn (Homo sapiens, UniProt P37840); experiment: In vitro α-syn aggregation kinetics, ThT fluorescent labeling method; assay type: biochemical; conditions: L-NIBC 1.0 and 10.0 ppm; 35 μM α-syn, 37° C.
T2 construct: purchased Bachem Corp
Source text: Thioflavin T (abbreviation: ThT) is a dye for dyeing amyloid fibers specifically. […] When it encounters amyloid polypeptide or protein with a fiber structure, it will immediately couple with the amyloid polypeptides or proteins and its fluorescence intensity will increase exponentially. For this reason, ThT is widely used as markers to monitor amyloidosis of peptides or proteins. This embodiment utilizes ThT fluorescent labeling method to monitor the kinetics process of fibrosis aggregation of α-syn with the existence of AuCs. The specific experiment method was as follows:
Pretreatment of α-syn monomers: Freeze-dried powder (Bachem Corp.) of α-syn was dissolved in HFIP to obtain a 1 g/L α-syn solution. The solution was incubated at room temperature for 2-4 h after sealing, then blowed to dry HFIP by high-purity nitrogen in a fume hood. […]
Sample preparation and detection: Ligand-modified AuCs in different concentrations listed in Table 1 were added to 35 μM α-syn PBS solutions respectively, and incubated continuously in a 96-well plate at 37° C., by ThT fluorescent labeling method, and were monitored the fluorescence intensity by microplate reader once every 10 minutes. The kinetic process of α-syn aggregation was characterized through the change of fluorescence intensity of ThT. […]

effect on Aβ(1-40) amyloidosis kinetics (Aβ(1-40) [1]): no obvious effect
Aβ(1-40) fibers in AFM topography (Aβ(1-40) [2]): no obvious effect
effect on kinetics of α-syn aggregation (α-syn): did not have an obvious effect
Structure (SMILES): CC(C)C(=O)N[C@@H](CS)C(=O)O [L-NIBC, N-isobutyryl-L-cysteine]
effect on cell viability in Aβ-induced AD cell model [3]: did not improve cell viability
